molecular target: human P2X3 receptor (Homo sapiens (Human), UniProt P56373); test: P2X3 receptor inhibition, ATP-evoked Fluo-3 calcium fluorescence (FDSS 3000); format: cell-based; settings: C6BU-1 cell transfected with human P2X3 receptor gene; ATP-evoked Fluo-3 fluorescence
Description: Stably expressing cell line (C6BU-1 cell transfected with human P2X3 receptor gene (GenBank accession number Y07683)) was used. The cells were seeded in a 96-well microtiter plate at a concentration of 8000 cells/well and cultured in the medium (8.3% fetal bovine serum, 8.3% horse serum, 1% antibiotic and antifungal in DMEM) for one day at 37° C. under 5% carbon dioxide atmosphere. The medium was replaced with 4 μM Fluo-3-AM solution (pH7.5) containing 20 mM HEPES, 137 mM NaCl, 2.7 mM KCl, 0.9 mM MgCl2, 5.0 mM CaCl2, 5.6 mM D-glucose, 2.5 mM probenecid, 10% BSA, and 0.08% Pluronic F-127, and incubated at 37° C. under 5% dioxide carbon atmosphere for one hour. The plate was washed with washing buffer (20 mM HEPES, 137 mM NaCl, 2.7 mM KCl, 0.9 mM MgCl2, 5.0 mM CaCl2, 5.6 mM D-glucose, 2.5 mM probenecid, pH7.5), and each well was added with 40 μL of this buffer. The plate was placed in High-Throughput Screening System FDSS 3000 (Hamamatsu Photonics K.K.). Measurement of fluorescence intensity by FDSS 3000 was started, and 40 μL of DMSO solutions containing different concentrations of the test compound as prepared by dilution with dilution buffer (20 mM HEPES, 137 mM NaCl, 2.7 mM KCl, 0.9 mM MgCl2, 5.0 mM CaCl2, 5.6 mM D-glucose, 2.5 mM probenecid, 0.1% Pluronic F-127, pH7.5) were dispensed to each well through the built-in automatic dispenser. Five minutes after, 40 nM ATP solution (50 μL) prepared by dilution with the dilution buffer was dispensed through the built-in automatic dispenser, and the measurement of fluorescence intensity was continued for 3 min. For each well, the specific maximum fluorescence intensity was calculated as the ratio of the maximum fluorescence intensity after addition of the ATP solution to the fluorescence intensity at the starting of the measurement. […] FDSS software (Hamamatsu Photonics K.K.) was used for calculation of the specific maximum fluorescence intensity. IC50 was calculated using Microsoft™ Excel™ (Microsoft Corporation) and XLfit™ (ID Business Solutions Ltd.).

Sequence of human P2X3 receptor (P56373 whole entry): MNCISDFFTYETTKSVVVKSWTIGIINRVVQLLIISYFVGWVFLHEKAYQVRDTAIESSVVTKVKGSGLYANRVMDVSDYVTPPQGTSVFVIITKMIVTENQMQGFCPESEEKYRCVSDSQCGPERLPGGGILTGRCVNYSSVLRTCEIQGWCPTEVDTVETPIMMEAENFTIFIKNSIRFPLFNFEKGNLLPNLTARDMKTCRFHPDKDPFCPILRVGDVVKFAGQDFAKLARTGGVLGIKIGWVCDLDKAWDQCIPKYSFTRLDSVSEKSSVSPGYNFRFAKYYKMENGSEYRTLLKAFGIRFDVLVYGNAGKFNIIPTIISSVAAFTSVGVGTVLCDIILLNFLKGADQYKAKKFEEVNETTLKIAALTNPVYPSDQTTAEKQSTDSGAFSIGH

Row | Compound | IC50
1 | CC(C)c1n[nH]c2c1C(c1ccccc1C(=O)NCCO)N(c1ccc(-c3ccsc3)cc1)C2=O (stereo not shown) [II-091] | 2 nM
2 | C=C(C)c1n[nH]c2c1C(c1ccccc1OC)N(c1ccc(-c3ccon3)cc1)C2=O (stereo not shown) [II-149] | 377 nM
3 | COCc1ccccc1C1C(C(=O)CC2CCCC2)=C(O)C(=O)N1c1ccc(-c2ccsc2)cc1 (stereo not shown) [Compound I-439] | 116 nM
4 | Cc1ccc(-c2ccc(N3C(=O)C(O)=C(C(=O)C(C)C)C3c3ccccc3OC(F)F)cc2)s1 (stereo not shown) [Compound I-333] | 58 nM
5 | COc1ccccc1C1c2c(C(C)(C)C)n[nH]c2C(=O)N1c1ccc(-c2cc(NC(C)=O)no2)cc1 (stereo not shown) [II-147] | 977 nM
6 | COCc1ccccc1[C@@H]1C(C(=O)C(C)C)=C(O)C(=O)N1c1ccc(-c2csc(C)c2)cc1 [Compound I-455] | 14 nM
7 | CCCCC(CCCC)C1C(C(=O)c2ccc(CO)cc2)=C(O)C(=O)N1c1ccc(-c2ccon2)cc1 (stereo not shown) [Compound I-007] | 100 nM
8 | COCOc1ccccc1C1C(C(=O)C(C)C)=C(O)C(=O)N1c1ccc(-c2ccc(C)s2)cc1 (stereo not shown) [Compound I-264] | 14 nM
9 | CCC(CC)C1C(C(=O)c2ccc(C(=O)NCCO)cc2)=C(O)C(=O)N1c1ccc(-c2ccon2)cc1 (stereo not shown) [Compound I-008] | 14 nM
10 | CC(C)OCc1ccccc1C1C(C(=O)C(C)C)=C(O)C(=O)N1c1ccc(-c2ccsc2)cc1 (stereo not shown) [Compound I-541] | 10 nM
11 | COc1ccccc1C1C(C(=O)C(C)C)=C(O)C(=O)N1c1ccc(-c2csc(C)c2)cc1 (stereo not shown) [Compound I-257] | 37 nM
12 | CC(C)c1n[nH]c2c1C(c1ccccc1OCC(N)=O)N(c1ccc(-c3ccsc3)cc1)C2=O (stereo not shown) [II-050] | 7 nM
13 | COc1ncccc1C1C(C(=O)C(C)(C)C)=C(O)C(=O)N1c1ccc(-c2cccs2)cc1 (stereo not shown) [Compound I-115] | 108 nM
14 | Cc1ccc(-c2ccc(N3C(=O)C(O)=C(C(=O)CC(C)C)C3c3cccnc3C(=O)N(C)C)cc2)s1 (stereo not shown) [Compound I-574] | 280 nM
15 | CC(C)c1n[nH]c2c1C(c1ccccc1OCC(C)(C)O)N(c1ccc(-c3ccsc3)cc1)C2=O (stereo not shown) [II-184] | 12 nM
16 | COCCOc1ccccc1C1C(C(=O)CC(C)C)=C(O)C(=O)N1c1ccc(-c2nc(C)no2)cc1 (stereo not shown) [Compound I-273] | 491 nM
17 | COc1ccccc1C1c2c(C(C)(C)C)n[nH]c2C(=O)N1c1ccc(C(C)C)cc1 (stereo not shown) [II-197] | 106 nM
18 | CC(C)C(=O)C1=C(O)C(=O)N(c2ccc(-c3ccon3)cc2)C1c1cccnc1OCCO (stereo not shown) [Compound I-179] | 659 nM
19 | Cc1cc(-c2ccc(N3C(=O)C(O)=C(C(=O)C(C)C)C3c3cccnc3OCCCO)cc2)cs1 (stereo not shown) [Compound I-570] | 70 nM
20 | COC(=O)COCc1ncccc1C1C(C(=O)C(C)(C)C)=C(O)C(=O)N1c1ccc(-c2ccsc2)cc1 (stereo not shown) [Compound I-181] | 114 nM
21 | COCCOc1ccccc1C1C(C(=O)CC(C)C)=C(O)C(=O)N1c1ccc(-c2csc(C)c2)cc1 (stereo not shown) [Compound I-375] | 30 nM
22 | CC(C)(C)c1n[nH]c2c1C(c1ccccc1OCC(=O)O)N(c1ccc(-c3ccon3)cc1)C2=O (stereo not shown) [II-029] | 90 nM

Row | Compound | IC50
23 | COc1ncccc1C1c2c(C(C)(C)CO)n[nH]c2C(=O)N1c1ccc(-c2ccco2)cc1 (stereo not shown) [II-111] | 91 nM
24 | COc1ccccc1C1C(C(=O)C(C)C)=C(O)C(=O)N1c1ccc(-c2cc(C)on2)cc1 (stereo not shown) [Compound I-457] | 488 nM
25 | Cc1cc(-c2ccc(N3C(=O)C(O)=C(C(=O)CC(C)C)C3c3ccccc3OC(F)F)cc2)on1 (stereo not shown) [Compound I-341] | 508 nM
26 | COc1ccccc1C1c2c(C(C)(C)CO)n[nH]c2C(=O)N1c1ccc(-c2nc(C)no2)cc1 (stereo not shown) [II-138] | 44 nM
27 | Cc1nc(-c2ccc(N3C(=O)C(O)=C(C(=O)C(C)C)C3c3ccccc3CCC(=O)NC(C)C)cc2)no1 (stereo not shown) [Compound I-594] | 715 nM
28 | Cc1nc(-c2ccc(N3C(=O)C(O)=C(C(=O)CC(C)C)C3c3ccccc3OC(F)(F)F)cc2)no1 (stereo not shown) [Compound I-319] | 222 nM
29 | COc1ccccc1C1C(C(=O)C(C)C)=C(O)C(=O)N1c1ccc(-c2csnn2)cc1 (stereo not shown) [Compound I-531] | 286 nM
30 | COc1ccccc1C1C(C(=O)C(F)(F)F)=C(O)C(=O)N1c1ccc(-c2ccon2)cc1 (stereo not shown) [Compound I-010] | 595 nM
31 | COCCOc1ncccc1C1C(C(=O)C(C)(C)C)=C(O)C(=O)N1c1ccc(-c2ccsc2)cc1 (stereo not shown) [Compound I-138] | 16 nM
32 | COc1ccccc1C1C(C(=O)C(C)C)=C(O)C(=O)N1c1ccc(-c2ccsc2)c(N)c1 (stereo not shown) [Compound I-237] | 705 nM
33 | CC(=O)N(C)c1ccccc1C1c2c(C(C)C)n[nH]c2C(=O)N1c1ccc(-c2ccsc2)cc1 (stereo not shown) [II-082] | 44 nM
34 | CNc1cc(-c2ccc(N3C(=O)c4[nH]nc(C(C)(C)C)c4C3c3ccccc3OC)cc2)on1 (stereo not shown) [II-146] | 416 nM
35 | COc1ccc(C(=O)C2=C(O)C(=O)N(c3ccc(-c4cccnc4)cc3)C2c2ccccc2OC)cc1 (stereo not shown) [Compound I-034] | 700 nM
36 | COCCOc1ncccc1C1C(C(=O)C2CCCC2)=C(O)C(=O)N1c1ccc(-c2ccsc2)cc1 (stereo not shown) [Compound I-517] | 26 nM
37 | COc1ccccc1C1C(C(=O)C(C)C)=C(O)C(=O)N1c1ccc(-c2ccoc2)cc1 (stereo not shown) [Compound I-198] | 64 nM
38 | Cc1nc(-c2ccc(N3C(=O)C(O)=C(C(=O)CC(C)C)C3c3ccccc3N3CCOCC3)cc2)no1 (stereo not shown) [Compound I-488] | 67 nM
39 | CC(C)Oc1ccccc1C1C(C(=O)C2CCCC2)=C(O)C(=O)N1c1ccc(-c2ccon2)cc1 (stereo not shown) [Compound I-512] | 62 nM
40 | COc1cccc(OC)c1C1c2c(C(C)(C)C)n[nH]c2C(=O)N1c1ccc(-c2ccon2)cc1 (stereo not shown) [II-060] | 538 nM
41 | COc1ccccc1C1C(C(=O)C(C)C)=C(O)C(=O)N1c1ccc(-c2ccsc2)c(N(C)C)c1 (stereo not shown) [Compound I-242] | 357 nM
42 | CN(C)CCOc1ccccc1C1c2c(C(C)(C)C)n[nH]c2C(=O)N1c1ccc(-c2ccsc2)cc1 (stereo not shown) [II-031] | 18 nM
43 | COc1ccccc1C1C(C(=O)c2cccnc2)=C(O)C(=O)N1c1ccc(-c2ccsc2)cc1 (stereo not shown) [Compound I-460] | 103 nM
44 | COCCOc1ccccc1C1c2c(C(C)(C)C)n[nH]c2C(=O)N1c1ccc(-c2nc(C)no2)cc1 (stereo not shown) [II-024] | 62 nM

Row | Compound | IC50
45 | CC(C)(C)c1n[nH]c2c1C(c1ccccc1C(=O)O)N(c1ccc(-c3ccsc3)cc1)C2=O (stereo not shown) [II-131] | 88 nM
46 | Cc1nc(-c2ccc(N3C(=O)C(O)=C(C(=O)CC(C)C)C3c3ccccc3OCCCO)cc2)no1 (stereo not shown) [Compound I-445] | 152 nM
47 | Cc1ccc(-c2ccc(N3C(=O)C(O)=C(C(=O)CC(C)C)C3c3ccccc3OC(F)(F)F)cc2)s1 (stereo not shown) [Compound I-338] | 147 nM
48 | COCCOc1ncccc1C1C(C(=O)CC(C)C)=C(O)C(=O)N1c1ccc(SC)cc1 (stereo not shown) [Compound I-550] | 254 nM
49 | COc1ccccc1C1c2c(C(C)(C)C)n[nH]c2C(=O)N1c1ccc(C(C)(C)O)cc1 (stereo not shown) [II-151] | 650 nM
50 | COCOc1ccccc1C1C(C(=O)CC(C)C)=C(O)C(=O)N1c1ccc(-c2ccoc2)cc1 (stereo not shown) [Compound I-349] | 37 nM
51 | CC(C)(C)c1n[nH]c2c1C(c1cccc3c1OCO3)N(c1ccc(-c3ccon3)cc1)C2=O (stereo not shown) [II-006] | 245 nM
52 | CCOCOc1ccccc1C1C(C(=O)C(C)C)=C(O)C(=O)N1c1ccc(-c2nc(C)no2)cc1 (stereo not shown) [Compound I-545] | 142 nM
53 | COCc1ccccc1C1C(C(=O)C2CCCC2)=C(O)C(=O)N1c1ccc(-c2ccsc2)cc1 (stereo not shown) [Compound I-516] | 33 nM
54 | COCc1ccccc1C1C(C(=O)C(C)C)=C(O)C(=O)N1c1ccc2sc(C)nc2c1 (stereo not shown) [Compound I-385] | 227 nM
55 | COc1ccccc1C1c2c(C(C)(C)CO)n[nH]c2C(=O)N1c1ccc(-c2ccoc2)cn1 (stereo not shown) [II-250] | 43 nM
56 | Cc1nc(-c2ccc(N3C(=O)C(O)=C(C(=O)C(C)C)C3c3ccccc3OCCCO)cc2)no1 (stereo not shown) [Compound I-444] | 172 nM
57 | COc1ccccc1C1c2c(C(C)=O)n[nH]c2C(=O)N1c1ccc(-c2ccsc2)cc1 (stereo not shown) [II-188] | 156 nM
58 | CC(C)(C)c1n[nH]c2c1C(c1cccnc1OCCO)N(c1ccc(-c3ccsc3)cc1)C2=O (stereo not shown) [II-039] | 5 nM
59 | CSc1ccccc1C1c2c(C(C)(C)C)n[nH]c2C(=O)N1c1ccc(-c2ccon2)cc1 (stereo not shown) [II-099] | 46 nM
60 | COCCCOc1ncccc1C1C(C(=O)C(C)C)=C(O)C(=O)N1c1ccc(-c2ccc(C)s2)cc1 (stereo not shown) [Compound I-569] | 35 nM
61 | Cc1ccc(-c2ccc(N3C(=O)C(O)=C(C(=O)CC(C)C)C3c3ccccc3C(=O)N(C)C)cc2)s1 (stereo not shown) [Compound I-406] | 29 nM
62 | COc1ccccc1C1c2c(C(C)(CO)CO)n[nH]c2C(=O)N1c1ccc(-c2ccon2)cc1 (stereo not shown) [II-258] | 304 nM
63 | COc1ncccc1C1C(C(=O)C(C)(C)C)=C(O)C(=O)N1c1ccc(SC)cc1 (stereo not shown) [Compound I-066] | 434 nM
64 | COc1ccccc1C1c2c(C(C)(C)C)n[nH]c2C(=O)N1c1ccc(-c2ccco2)cn1 (stereo not shown) [II-257] | 33 nM
